Measurements published in patent US8129425B2, “Small organic molecule regulators of cell proliferation” (Curis, Inc., priority 2000, dated 2012).

tested on: hedgehog-responsive Gli-Luc reporter-construct; assay: Gli-Luc hedgehog pathway reporter assay in [10T1/2(s12)] cells; format: cell-based, murine; conditions: Table 1
Description: To measure the hedgehog agonist activity of compounds, we used [10T1/2(s12)] cells containing the hedgehog-responsive Gli-Luc reporter-construct. In each MTP (MicroTiter Plate; 96-well plate), 10,000-20,000 cells were plated per well, in full media (10% FBS). After about 24-48 hr, plates were switched to low-serum media (=0.5%. FBS). Subsequently, a test compound was added at 1-5 μM in the presence or absence of octyl-hedgehog (see below). After another 24 hr, the media from the MTPs was discarded and replaced with luciferase assay-mix, containing lysis-buffer with luciferase substrate. The plates were incubated at RT for about 15-30 min and read in a luminometer.
Plates were incubated for 48 hr before switching to low-serum. Compounds were screened at 1-2 μM in the presence of Hh protein (0.01 μg/ml; EC30=about 30% of max-induced activity).
Plates were incubated for 24 hr before switching to low-serum. Compounds were screened at 5 μM without adding Hh protein.
From Screen A, we identified hits identified in FIGS. 32 and 33. The 1,4-diaminocyclohexane subunit of the compounds of FIG. 32 which include this moiety have the two amino substituents disposed in a trans-relationship, e.g., both substituents equatorial on the cyclohexane subunit. These hits were confirmed in Screen B. The data shown in FIGS. 34a and 34b essentially involved dosing the two compounds in both assays (Gli-Luc & SV-Luc).
The data from the Gli-Luc assay is converted to percent activity where full activity with Hh protein is set at 100% (FIG. 35; Table 1). […] Furthermore, the compounds show a more striking induction in the presence of hedgehog (EC50=0.2-0.3 μM, ECmax=70-90% of max induced activity with Hh protein), indicating a synergy between the compounds and Hh protein, consistent with the compounds serving as agonists for the hedgehog pathway.

Structure (SMILES)	EC50
COc1ccc(CN(C(=O)c2sc3ccccc3c2Cl)C2CCC(O)CC2)cc1-c1ccc(C#N)cc1 (stereo not shown) [A′]	< 10000 nM
CN[C@H]1CC[C@H](N(Cc2scc(-c3cccnc3)c2C)C(=O)c2sc3ccccc3c2Cl)CC1 [A′′]	< 10000 nM
CN[C@H]1CC[C@H](N(Cc2cc(-c3ccncc3)cs2)C(=O)c2sc3cccc(F)c3c2Cl)CC1 [A′′′]	< 50 nM
CN[C@H]1CC[C@H](N(Cc2cccc(-c3nccs3)c2)C(=O)c2sc3ccccc3c2Cl)CC1 [B′′]	< 10000 nM
NC1CCC(N(Cc2cccc(-c3cccnc3)c2)C(=O)c2sc3ccccc3c2Cl)CC1 (stereo not shown) [Compound C]	< 1000 nM
COc1ccc(CN(C(=O)c2sc3ccccc3c2C)C2CCC(N)CC2)cc1-c1ccc(C#N)cc1 (stereo not shown) [Compound E]	< 10000 nM
CNC1CCC(N(Cc2ccc(C)c(-c3ccc(C#N)cc3)c2)C(=O)c2sc3ccccc3c2Cl)CC1 (stereo not shown) [Compound S]	< 1000 nM
COc1ccc(CN(C(=O)c2sc3ccccc3c2Cl)[C@H]2CC[C@H](N)CC2)cc1-c1ccsc1 [C′]	< 10000 nM
CN[C@H]1CC[C@H](N(Cc2cccc(Oc3ccccc3)c2)C(=O)c2sc3ccccc3c2Cl)CC1 [C′′]	< 10000 nM
COc1ccc(CN(C(=O)c2sc3ccccc3c2Cl)[C@H]2CC[C@H](N)CC2)cc1-c1cccnc1 [D′]	< 10000 nM
CN[C@H]1CC[C@H](N(Cc2cccc(-c3ccc[nH]3)c2)C(=O)c2sc3ccccc3c2Cl)CC1 [D′′]	< 10000 nM
CN[C@H]1CC[C@H](N(Cc2ccc(OC)c(-c3ccc(C#N)cc3)c2)C(=O)c2sc3ccc(F)c(F)c3c2Cl)CC1 [D′′′]	< 50 nM
COc1ccc(CN(C(=O)c2sc3ccccc3c2Cl)[C@H]2CC[C@H](N)CC2)cc1-c1ccc(F)cc1 [E′]	< 10000 nM
CN[C@H]1CC[C@H](N(Cc2ccc3c(c2)CCO3)C(=O)c2sc3ccccc3c2Cl)CC1 [E′′]	< 10000 nM
NC1CCC(N(Cc2ccc(-c3nccs3)cc2)C(=O)c2sc3ccccc3c2Cl)CC1 (stereo not shown) [F]	< 10000 nM
COc1ccc(CN(C(=O)c2sc3ccccc3c2Cl)[C@H]2CC[C@H](N)CC2)cc1-c1ccccc1 [F′]	< 10000 nM
CN[C@H]1CC[C@H](N(Cc2ccc(OC)c(-c3ccc(C#N)cc3)c2)C(=O)c2sc3c(F)cc(F)cc3c2Cl)CC1 [F′′′]	< 50 nM
COc1ccc(CN(C(=O)c2sc3ccccc3c2Cl)[C@H]2CC[C@H](N(C)C)CC2)cc1-c1ccc(C#N)cc1 [G′]	< 10000 nM
CN[C@H]1CC[C@H](N(Cc2cc(-c3ccc(C#N)cc3)cs2)C(=O)c2sc3ccccc3c2Cl)CC1 [G′′]	< 100 nM
CN[C@H]1CC[C@H](N(Cc2cncc(-c3cccnc3)c2)C(=O)c2sc3ccccc3c2Cl)CC1 [G′′′]	< 5000 nM
COc1ccc(CN(C(=O)c2sc3ccccc3c2Cl)C2CCC(N)CC2)cc1-c1ccc(C(C)=O)cc1 (stereo not shown) [H]	< 1000 nM
COc1ccc(CN(C(=O)c2sc3ccccc3c2Cl)[C@H]2CC[C@H](N)CC2)cc1Br [H′]	> 10000 nM
CN[C@H]1CC[C@H](N(Cc2cccc(-c3ccc(N(C)C)nc3)c2)C(=O)c2sc3ccccc3c2Cl)CC1 [H′′]	< 100 nM

Structure (SMILES)	EC50
CN[C@H]1CC[C@H](N(Cc2cccc(-c3ccncc3)c2)C(=O)c2sc3ccccc3c2Cl)CC1 [H′′′]	< 50 nM
COc1ccc(CN(C(=O)c2sc3ccccc3c2Cl)C2CCC(N)CC2)cc1-c1ncccn1 (stereo not shown) [I]	> 10000 nM
CN[C@H]1CC[C@H](N(Cc2cccc(-c3ccc(C#N)cc3)c2)C(=O)c2sc3ccccc3c2Cl)CC1 [I′]	< 1000 nM
CN[C@H]1CC[C@H](N(Cc2cc(-c3ccc(S(N)(=O)=O)s3)cs2)C(=O)c2sc3ccccc3c2Cl)CC1 [I′′]	< 500 nM
NC1CCC(N(Cc2cc(-c3ccc(F)cc3)cs2)C(=O)c2sc3ccccc3c2Cl)CC1 (stereo not shown) [J]	< 1000 nM
CN[C@H]1CC[C@H](N(Cc2ccc(OC)c(-c3ccc(C#N)cc3)c2)C(=O)c2sc3cc(F)ccc3c2Cl)CC1 [J′]	< 1000 nM
COc1ccc(-c2cc(CN(C(=O)c3sc4ccccc4c3Cl)C3CCC(N)CC3)ccc2OC)cc1 (stereo not shown) [K]	< 1000 nM
CN[C@H]1CC[C@H](N(Cc2ccc(OC)c(-c3ccc(C#N)cc3)c2)C(=O)c2sc3ccccc3c2C)CC1 [K′]	< 10000 nM
CN[C@H]1CC[C@H](N(Cc2cncc(-c3ccc(S(N)(=O)=O)s3)c2)C(=O)c2sc3ccccc3c2Cl)CC1 [K′′′]	< 5000 nM
CN[C@H]1CC[C@H](N(Cc2cccc(-c3ccc(S(=O)(=O)NC(C)(C)C)s3)c2)C(=O)c2sc3ccccc3c2Cl)CC1 [L′′]	< 1000 nM
CN[C@H]1CC[C@H](N(Cc2ccc(OC)c(-c3ccc(C#N)cc3)c2)C(=O)c2sc3sccc3c2Cl)CC1 [L′′′]	< 5000 nM
CNC1CCC(N(Cc2cccc(-c3ccncc3)c2)C(=O)c2sc3ccccc3c2Cl)CC1 (stereo not shown) [M]	< 1000 nM
CN[C@H]1CC[C@H](N(Cc2cccc(-c3ccc(S(=O)(=O)N(C)C)s3)c2)C(=O)c2sc3ccccc3c2Cl)CC1 [M′′]	< 1000 nM
CN[C@H]1CC[C@H](N(Cc2ccnc(-c3ccc(C#N)cc3)c2)C(=O)c2sc3ccccc3c2Cl)CC1 [M′′′]	< 500 nM
CNC1CCC(N(Cc2cccc(-c3ccc(C)nc3)c2)C(=O)c2sc3ccccc3c2Cl)CC1 (stereo not shown) [N]	< 1000 nM
CN[C@H]1CC[C@H](N(Cc2cccc(-c3cccnc3)n2)C(=O)c2sc3ccccc3c2Cl)CC1 [N′′]	< 1000 nM
CN[C@H]1CC[C@H](N(Cc2ccnc(-c3ccc(S(N)(=O)=O)s3)c2)C(=O)c2sc3ccccc3c2Cl)CC1 [N′′′]	< 5000 nM
CN[C@H]1CC[C@H](N(Cc2cccc(-c3ccc(S(=O)(=O)NC(C)=O)s3)c2)C(=O)c2sc3ccccc3c2Cl)CC1 [O′′]	< 1000 nM
CN[C@H]1CC[C@H](N(Cc2ccc(OC)c(-c3ccc(C#N)cc3)c2)C(=O)c2sc3cccc(C)c3c2Cl)CC1 [O′′′]	< 1000 nM
CNC1CCC(N(Cc2cccc(-c3cnccn3)c2)C(=O)c2sc3ccccc3c2Cl)CC1 (stereo not shown) [P]	< 1000 nM
CN[C@H]1CC[C@H](N(Cc2cc(-c3ccco3)cs2)C(=O)c2sc3ccccc3c2Cl)CC1 [P′′]	< 10000 nM
CNC1CCC(N(Cc2cccc(-c3ccccn3)c2)C(=O)c2sc3ccccc3c2Cl)CC1 (stereo not shown) [Q]	< 1000 nM
CN[C@H]1CC[C@H](N(Cc2ccnc(-c3ccc(N)nc3)c2)C(=O)c2sc3ccccc3c2Cl)CC1 [Q′′′]	< 1000 nM

Structure (SMILES)	EC50
CN[C@H]1CC[C@H](N(Cc2cccc(-c3ccc(S(=O)(=O)n4c(C)ccc4C)s3)c2)C(=O)c2sc3ccccc3c2Cl)CC1 [R′′]	< 1000 nM
CN[C@H]1CC[C@H](N(Cc2ccnc(C(F)(F)F)c2)C(=O)c2sc3ccccc3c2Cl)CC1 [R′′′]	< 1000 nM
CN[C@H]1CC[C@H](N(Cc2cncc(-c3ccc(C#N)cc3)c2)C(=O)c2sc3ccccc3c2Cl)CC1 [S′′]	< 10000 nM
CN[C@H]1CC[C@H](N(Cc2ccnc(-c3cccnc3)c2)C(=O)c2sc3ccccc3c2Cl)CC1 [S′′′]	< 1000 nM
Cc1ccc(-c2cccc(CN(C(=O)c3sc4ccccc4c3Cl)C3CCC(N)CC3)c2)cn1 (stereo not shown) [T]	< 10000 nM
CN[C@H]1CC[C@H](N(Cc2cc(Cl)nc(Cl)c2)C(=O)c2sc3ccccc3c2Cl)CC1 [T′′′]	< 1000 nM
CNC1CCC(N(Cc2ccc(OC)c(I)c2)C(=O)c2sc3ccccc3c2Cl)CC1 (stereo not shown) [U]	< 10000 nM
CN[C@H]1CC[C@H](N(Cc2cccc(-c3nccnc3C)c2)C(=O)c2sc3ccccc3c2Cl)CC1 [U′]	< 1000 nM
CN[C@H]1CC[C@H](N(Cc2ccccn2)C(=O)c2sc3c(F)ccc(F)c3c2Cl)CC1 [U′′′]	< 1000 nM
CN[C@H]1CC[C@H](N(Cc2cccc(-c3ccc(OC)nc3)c2)C(=O)c2sc3ccccc3c2Cl)CC1 [V′]	< 1000 nM
CN[C@H]1CC[C@H](N(Cc2cc(-c3cccnc3)cs2)C(=O)c2sc3c(F)ccc(F)c3c2Cl)CC1 [V′′]	< 5 nM
CNC1CCC(N(Cc2cccc(I)c2)C(=O)c2sc3ccccc3c2Cl)CC1 (stereo not shown) [W]	< 10000 nM
CN[C@H]1CC[C@H](N(Cc2cccc(N3CCOCC3)c2)C(=O)c2sc3ccccc3c2Cl)CC1 [W′]	< 10000 nM
CN[C@H]1CC[C@H](N(Cc2cc(-c3ccncc3)cs2)C(=O)c2sc3c(F)ccc(F)c3c2Cl)CC1 [W′′]	< 5 nM
COc1ccc(CN(C(=O)c2sc3ccccc3c2Cl)C2CCC(N)CC2)cc1-c1cccc(C#N)c1 (stereo not shown) [X]	< 10000 nM
CN[C@H]1CC[C@H](N(Cc2cccc(Nc3ccccn3)c2)C(=O)c2sc3ccccc3c2Cl)CC1 [X′]	< 10000 nM
COc1ccc(CN(C(=O)c2sc3ccccc3c2Cl)C2CCC(N)CC2)cc1-c1cccnc1 (stereo not shown) [Y]	< 10000 nM
CN[C@H]1CC[C@H](N(Cc2cccc(N3CCC4(CC3)OCCO4)c2)C(=O)c2sc3ccccc3c2Cl)CC1 [Y′]	< 10000 nM
CN[C@H]1CC[C@H](N(Cc2ccc(OC)c(-c3ccc(C#N)cc3)c2)C(=O)c2sc3cccc(F)c3c2Cl)CC1 [Y′′]	< 50 nM
COc1ccc(CN(C(=O)c2sc3ccccc3c2Cl)C2CCC(N)CC2)cc1-c1nccs1 (stereo not shown) [Z]	< 10000 nM
CN[C@H]1CC[C@H](N(Cc2cccc(C#N)c2)C(=O)c2sc3ccccc3c2Cl)CC1 [Z′]	< 10000 nM
